2 molecules from patent US11617748B2, “Meclozine derivatives and diclazuril derivatives for use in the prevention and/or the treatment of disorders associated to the inflammation induced by P. acnes” (priority 2016, dated 2023) can be followed below.

SMILES strings stand for the structures.

In experiment [1] the test system is PKC. The experiment is described as follows: Western blot of p-PKC/PKC in P. acnes-stimulated HaCaT cells. The format is cell-based, human. Conditions: 25 μM, 24 h pre-treatment. On the procedure:
(§1) Western Blot analysis. Whole cell protein extracts (25 μg) were separated by electrophoresis (LDS-PAGE) under denaturing conditions with NuPAGE Novex 4-12% Bis-Tris gel (1 mm, 12 wells, Invitrogen, UK) and proteins were transferred onto nitrocellulose membranes and saturated in 20 ml of saturation buffer consisting of TBS 1× (Tris Buffered Saline) containing 200 mM Tris, 1.4 M NaCl (pH 7.6), 5% no fat milk, 0.1% Tween 20 for 1 h. […] After washing to remove unbound antibodies, bound primary antibodies were detected by incubation for 1 h using secondary antibody against rabbit- and mouse IgG (Santa Cruz Biotechnology, SC-2357, 1:5000 and SC-2005, 1:5000, respectively). Unbound material was removed by washing and peroxidase activity was detected in a chemiluminescence assay (WesternBright ECL, Advansta, Menlo Park, USA). […]

Experiment [2] relates to JNK. The experiment is described as follows: Western blot of p-JNK/JNK in P. acnes-stimulated HaCaT cells. The format is cell-based, human. Conditions: 25 μM, 24 h pre-treatment. On the procedure: as §1
Experiment [3] deals with ICAM-1. The experiment in a line: Western blot of ICAM-1 expression in P. acnes-stimulated HaCaT cells. The format is cell-based, human. Conditions: 25 μM, 24 h pre-treatment. On the procedure:
as §1
Background: A western blot detects proteins with antibodies after separation by electrophoresis.

In experiment [4] the test system is PPARα. The experiment is described as follows: Western blot of PPARα expression in P. acnes-stimulated HaCaT cells. It counts as cell-based, human. Conditions: 25 μM, 24 h pre-treatment. On the procedure:
as §1

Experiment [5] deals with IL-8 production. The experiment is described as follows: PGN-induced IL-8 production in HaCaT keratinocytes (ELISA). The format is cell-based, human. Conditions: 6.25 μM, 24 h pre-treatment, PGN 5, 10, 20 μg/ml for 18 h. As for the experimental part:
(§2) ELISA. Human IL-1β, IL-8, hBD-2 and TNF-α protein concentration were measured in the supernatants of stimulated cells using various ELISA Sets (all from Ready-Set-Go from eBioscience, except hBD-2 measurements: Human DEFB4A/BD-2 ELISA Kit from LSBio) according to the manufacturer's instructions. We used serial dilutions of recombinant human IL-1β, IL-8, hBD-2 and TNF-α for standard curve. The optical density was determined at 450 nm at a wavelength correction of 540 nm.
Previously it has been shown that diclazuril and meclozine were able to inhibit IL-8 and IL-1β productions at the transcriptional and […] levels in pretreated cells stimulated with P. acnes. Here, it is investigated if the nature of the cell stimuli would have an impact on the diclazuril and meclozine effects on the IL-8 and IL-1β productions. Both, HaCaT and ThP-1 cell lines were pretreated with several concentrations of diclazuril and meclozine ranging from 0.39 to 25 μM for 24 h, and then stimulated with 3 different concentrations of peptidoglycanne (PGN) and lipoteicoic acid (LTA) at 5, 10 and 20 μg/ml for 18 h at 37° C. […] Pretreatment of keratinocytes with diclazuril decreased the production of IL-8 by an average of 65% at 6.25 μM regardless of the initial PGN dose used (FIG. 5A). Same results were obtained with meclozine and at 6.25 μM the IL-8 production was reduced by 60% (FIG. 5B).
(An ELISA detects its analyte on a solid surface through an enzyme-linked reagent.)

Experiment [6] concerns P. acnes-induced ear inflammation. The experiment in a line: In vivo model of P. acnes-induced inflammation in mouse ears. Conditions: mice; for decrease of the ear inflammation: topical, each day for 3 days, score over 96 h. As for the experimental part: This model is based on the capacity of mouse ears to react while P. acnes is intradermally injected. The inflammatory reaction is evaluated each day over a period of 4 days after P. acnes injection by measuring the thickness of the ears, the redness as well as the presence of a desquamation and/or small pustules. At the end of the experiment, final measurement of inflammation was realized and photographic pictures of ears were taken. Then, mice were euthanized and ears were immediately fixed in a formalin-containing buffer for a future histological analysis. The experimental design consisted of 3 groups containing 10 mice each. 1) PBS corresponds to the non-treated group injected with PBS. 2) PA+Vehicle TOPIC corresponds to P. acnes injected in ears treated with Vaseline alone. 3) PA+diclazuril corresponds to P. acnes injected in ears treated with 1.3% diclazuril mixed with Vaseline. The preparation of the 1.3% diclazuril gel consisted of extemporaneously gently mixing 6.5 mg of diclazuril with […] for 1 min at room temperature (21° C.) and then directly applied to the mouse ears. This model is based on the capacity of mouse ears to react while P. acnes is intradermally injected. The inflammatory reaction is evaluated each day over a period of 4 days after P. acnes injection by measuring the thickness of the ears, the redness as well as the presence of a desquamation and/or small pustules. At the end of the experiment, final measurement of inflammation was realized and photographic pictures of ears were taken. Then, mice were euthanized and ears were immediately fixed in a formalin-containing buffer for a future histological analysis.

Experiment [7] concerns hBD-2 production. The experiment is described as follows: hBD-2 production by M5-stimulated NHDK, in vitro psoriasis-like model (ELISA). It counts as cell-based, human. Conditions: NHDK + M5, 48 h. On the procedure: Cell culture, pretreatment and stimulation.
as §2

In experiment [8] the test system is IL-8 production. The experiment in a line: P. acnes-induced IL-8 production in HaCaT keratinocytes (ELISA). Conditions: HaCaT cells pre-treated 24 h, no P. acnes stimulation. It counts as cell-based, human.
[9] abbreviates: 1% meclozine gel topical, vs PA+Vehicle.

On to `N#CC(c1ccc(Cl)cc1)c1c(Cl)cc(-n2ncc(=O)[nH]c2=O)cc1Cl` (stereo not drawn) [diclazuril, Diclazuril], for which the “phosphorylation of PKC induced by P. acnes” value in experiment [1] is reported as “prevented the phosphorylation”. Also, the “phosphorylation of JNK induced by P. acnes” value in experiment [2] is “did not cause any changed”. In addition, the “P. acnes-induced ICAM-1 expression” value in experiment [3] is “no effect”. Also, the “expression of PPARα” value in experiment [4] is listed as “no change”. The “decrease of PGN-induced IL-8 production” value in experiment [5] amounted to 65%. For the same molecule, in experiment [6] (1.3% diclazuril in Vaseline), the “decrease of the ear inflammation” value stood at 37%. In addition, the “decrease of hBD-2 production” value in experiment [7] (at 12.5 μM) is recorded as 68%. Also, in experiment [8], the “IL-8 production in pretreated cells without being stimulated” value is recorded as “no change”.
`Cc1cccc(CN2CCN(C(c3ccccc3)c3ccc(Cl)cc3)CC2)c1` (stereo not drawn) [meclozine, Meclozine]: the “phosphorylation of PKC induced by P. acnes” value in experiment [1] is “prevented the phosphorylation”. The “phosphorylation of JNK induced by P. acnes” value in experiment [2] was “did not cause any changed”. In addition, in experiment [3], the “P. acnes-induced ICAM-1 expression” value is given as “decreased its expression”. The “expression of PPARα” value in experiment [4] is “strongly decrease”. Besides, the “decrease of PGN-induced IL-8 production” value in experiment [5] is listed as 60%. In experiment [6] (1% meclozine gel (Vaseline, DMSO, Solutol/water)), the “decrease of the ear inflammation” value is reported as 29.5%. In experiment [6] (setting [9]), the “ear thickness (histological analysis)” value is recorded as “decrease” and the “leukocyte infiltration (histological analysis)” value is recorded as “decrease”. For the same molecule, in experiment [7] (0.39 to 12.5 μM), the “effect on hBD-2 production, in words” value is “no effect”. For the same molecule, in experiment [8], the “IL-8 production in pretreated cells without being stimulated” value is reported as “no change”.
